The values below come from PMC10461232, “Structure-Based Design of Transport-Specific Multitargeted One-Carbon Metabolism Inhibitors in Cytosol and Mitochondria” (Journal of Medicinal Chemistry, 2023).

The test system of one assay is KB tumor cells. As to the kind of experiment: Metabolite rescue of growth inhibition in KB tumor cells. In kind it is cell-based, human. Conditions: serine- and glycine-free medium, adenosine 60 μM. The text has this: To confirm the targeted pathways for the pyrrolo[3,2-d]pyrimidine antifolates in tumor cells, we treated KB human tumor cells cultured in serine- and glycine-free media with the pyrrolo[3,2-d]pyrimidine compounds (4–9, 11–16) to test for the rescue by added nucleosides and glycine. Results were compared to those for AGF94, a pyrrolo[2,3-d]pyrimidine antifolate that inhibits GARFTase without effects on SHMT2,[69] and to compounds 1, 2, and 3, documented inhibitors of mitochondrial C1 metabolism and de novo purine biosynthesis in human tumor cells.[36] The results are shown in Figures 15 and S11 (Supplemental Information). […]
For some experiments with KB tumor cells, cells were cultured in serine-, glycine-, and folate-free RPMI 1640 (Fisher Scientific), supplemented with 10% dialyzed fetal bovine serum, antibiotics, 25 nM leucovorin, and 2 mM L-glutamine. In vitro growth inhibition was measured (above), without additions, or in the presence of folic acid (200 nM), or thymidine (10 μM), adenosine (60 μM), 5-aminoimidazole-4-carboxamide (AICA) (320 μM), and/or glycine (130 μM) to establish the inhibitory effects of the antifolate drugs on de novo thymidylate synthase versus de novo purine nucleotide biosynthesis (GARFTase and AICARFTase) or mitochondrial C1 metabolism at SHMT2.[36],[63],[64],[68],[69] […]

The next assay has as its target T1, SHMT2 (Homo sapiens, UniProt P34897).
T1 construct: made in house; host or cells: E. coli Rosetta (DE3)pLysS
T1 sequence (P34897 30-504): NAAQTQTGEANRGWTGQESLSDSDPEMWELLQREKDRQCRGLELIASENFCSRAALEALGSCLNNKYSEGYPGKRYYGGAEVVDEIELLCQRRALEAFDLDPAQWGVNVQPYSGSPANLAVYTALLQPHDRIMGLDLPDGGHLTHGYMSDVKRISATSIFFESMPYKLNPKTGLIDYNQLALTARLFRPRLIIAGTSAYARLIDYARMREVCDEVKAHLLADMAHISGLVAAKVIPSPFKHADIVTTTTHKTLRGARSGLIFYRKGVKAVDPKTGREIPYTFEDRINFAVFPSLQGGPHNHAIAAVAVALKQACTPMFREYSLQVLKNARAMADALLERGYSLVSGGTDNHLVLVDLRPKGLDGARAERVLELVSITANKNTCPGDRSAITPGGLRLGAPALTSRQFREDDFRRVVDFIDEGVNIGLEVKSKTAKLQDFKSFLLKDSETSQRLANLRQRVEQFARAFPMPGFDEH
As to the kind of experiment: SHMT2 inhibition assay coupled with MTHFD2, Ki. In kind it is biochemical. Particulars: purified His-SHMT2, 50 μM THF, 25 °C; mean (SD), at least 3 replicates. As for the experimental part:
(§1) MTHFD2 activities were assayed by a reaction with methylene THF and NAD^+. NADH production was measured by fluorescence (excitation 340 nm, emission 480 nm). Reaction conditions included 100 nM MTHFD2, 5 μM methylene THF, and concentrations of small-molecule inhibitor ranging from 0.02 nM to 2000 nM; NAD^+ (2.5 mM) was added to initiate the reaction. The reaction buffer consisted of 50 mM Tris-HCl, pH 7.5, 250 mM NaCl, 5 mM magnesium chloride, 5% glycerol, and 0.5 mM TCEP. […] To assay SHMT1 or SHMT2 (SHMT1/2) enzymes, a coupled reaction with His-MTHFD2 in 200-fold molar excess was used where the production of NADH was monitored by fluorescence with excitation at 360 nm and emission at 470 nm at 25 °C. The reactions contained 5 nM His-SHMT1/2, 50 μM THF, 20 mM serine, 10 μM His-MTHFD2, 2.5 mM NAD^+, and a range of inhibitor concentrations (final concentrations). The reactions were performed in buffer containing 20 mM sodium phosphate, pH 7.5, 100 mM KCl, 0.2 mM EDTA, and 5 mM β-Me. […] To calculate IC50 values for each inhibitor, initial velocities were graphed as a function of inhibitor concentrations and fit with a three-parameter nonlinear regression (GraphPad Prism 8.0). The equation [Ki = IC50/([S]/KM + 1)] was used to convert IC50’s to Ki values.

A further assay concerns the target T2, SHMT1 (Homo sapiens, UniProt P34896).
T2 construct: full-length SHMT1 with an N-terminal His6-tag; made in house; host or cells: E. coli Rosetta (DE3)pLysS
T2 sequence (P34896 1-483): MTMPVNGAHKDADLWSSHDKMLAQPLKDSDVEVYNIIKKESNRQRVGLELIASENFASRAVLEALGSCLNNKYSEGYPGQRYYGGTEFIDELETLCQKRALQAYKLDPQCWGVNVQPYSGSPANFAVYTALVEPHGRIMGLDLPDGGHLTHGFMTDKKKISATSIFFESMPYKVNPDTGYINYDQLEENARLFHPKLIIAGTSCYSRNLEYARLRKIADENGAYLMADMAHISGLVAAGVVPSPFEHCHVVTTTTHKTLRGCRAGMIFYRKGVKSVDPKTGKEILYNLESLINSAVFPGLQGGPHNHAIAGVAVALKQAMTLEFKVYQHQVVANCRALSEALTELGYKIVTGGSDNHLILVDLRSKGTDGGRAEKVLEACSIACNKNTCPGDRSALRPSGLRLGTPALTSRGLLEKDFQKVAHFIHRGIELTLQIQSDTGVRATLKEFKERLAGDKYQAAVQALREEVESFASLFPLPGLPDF
Nature of the assay: SHMT1 inhibition assay coupled with MTHFD2, Ki. In kind it is biochemical. Particulars: purified His-SHMT1, 50 μM THF, 25 °C; mean (SD), at least 3 replicates.

For a further assay, the target named is T3, human ATIC (Homo sapiens, UniProt P31939).
T3 construct: N-terminal His6-tagged full-length human ATIC; made in house; host or cells: E. coli Rosetta (DE3)pLysS
T3 sequence (P31939 whole entry): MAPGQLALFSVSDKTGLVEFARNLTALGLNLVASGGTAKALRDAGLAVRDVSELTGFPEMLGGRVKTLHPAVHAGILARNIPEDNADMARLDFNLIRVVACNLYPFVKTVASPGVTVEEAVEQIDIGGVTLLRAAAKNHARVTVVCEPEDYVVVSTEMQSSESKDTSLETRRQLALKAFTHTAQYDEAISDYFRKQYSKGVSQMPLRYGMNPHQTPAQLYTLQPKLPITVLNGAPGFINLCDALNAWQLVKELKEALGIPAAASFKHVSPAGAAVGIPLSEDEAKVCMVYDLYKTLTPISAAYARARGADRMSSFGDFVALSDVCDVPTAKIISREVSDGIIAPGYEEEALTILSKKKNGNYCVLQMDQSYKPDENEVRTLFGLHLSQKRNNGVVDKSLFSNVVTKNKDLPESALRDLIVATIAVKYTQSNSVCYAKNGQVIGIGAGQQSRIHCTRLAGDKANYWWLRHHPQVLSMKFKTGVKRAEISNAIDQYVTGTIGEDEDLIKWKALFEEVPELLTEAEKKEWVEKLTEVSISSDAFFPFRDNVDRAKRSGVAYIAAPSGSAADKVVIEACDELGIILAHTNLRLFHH
Nature of the assay: AICARFTase (ATIC) inhibition assay, Ki. In kind it is biochemical. Particulars: purified His-ATIC, AICARFTase activity, 50 μM 10-formyl THF, 25 °C; mean (SD), at least 3 replicates. As for the experimental part: The cells were grown at 37 °C in 1 L cultures of LB media containing […] and […] until OD600 reached 0.6. Protein expression was induced by the addition of isopropyl β-D1-thiogalactopyranoside (IPTG, 500 μM).
His-ATIC was purified by Ni-NTA chromatography (Gold Biotechnology).[36] […] His-ATIC was eluted in 1 column volume fractions, 5 times with buffer containing 300 mM imidazole, 25 mM Tris-HCl, pH 7.5, 300 mM NaCl, and 5 mM β-Me. Size exclusion chromatography on a Superdex 200 16/60 (GE Healthcare) column was used for final purification using 20 mM Tris-HCl, pH 7.5, 150 mM NaCl, 50 mM KCl, 5 mM EDTA, and 5 mM dithiothreitol.
as §1

The next assay has as its system RT16 (FRα) CHO cells. Conditions: classic antifolates, CHO cells expressing human FRα; previously published; cited from earlier work.
Another assay deals with PC43-10 (RFC) CHO cells. Particulars: classic antifolates, CHO cells expressing human RFC; previously published; cited from earlier work.
In another assay the test system is KB (RFC/PCFT/FRα) cells. Nature of the assay: Growth inhibition, KB nasopharyngeal carcinoma cells. The format is cell-based, human. Conditions: Homo sapiens, KB, folate-free RPMI 1640, 2 nM leucovorin, mean (SE). How it is done: The CHO cells were cultured in α-minimal essential medium (MEM) supplemented with 10% bovine calf serum (Fisher Scientific), penicillin (1000 U/mL)/streptomycin (1000 μg/mL), and 2 mM L-glutamine at 37 °C with 5% CO2. All of the R2 transfected cells (PC43-10, RT16, R2/PCFT4) were cultured in complete α-MEM media plus 1 mg/mL G418. Prior to the cytotoxicity assays (see below), RT16 and D4 cells were cultured for 3 days in complete folate-free RPMI 1640 (without added folate), and R2/PCFT4 and R2 cells were cultured in complete folate-free RPMI 1640 supplemented with dialyzed fetal bovine serum (Fisher Scientific) and 25 nM leucovorin plus 1 mg/mL G418. KB cells were routinely cultured in folate-free RPMI 1640 medium, supplemented with 10% fetal bovine serum (Fisher Scientific), penicillin-streptomycin solution, and 2 mM L-glutamine at 37 °C with 5% CO2.
For growth inhibition studies, cells (CHO, KB) were plated in 96-well dishes (∼2500–5000 cells/well, total volume of 200 μL medium) over a range of antifolate concentrations.[69],[77] The medium was folate-free RPMI 1640 with 10% dialyzed serum and antibiotics supplemented with 25 nM leucovorin for experiments with R2, PC43-10, and R2/PCFT4 cells. For experiments with RT16, D4, and KB cells, cells were cultured in folate-free RPMI medium with 10% dialyzed fetal bovine serum and antibiotics; the medium was supplemented with 2 nM leucovorin. […] Incubations were routinely for up to 96 h. Viable cells (reflecting cell viability) were assayed with Cell Titer Blue reagent (Promega, Madison, WI), with fluorescence measured (590 nm emission, 560 nm excitation) with a fluorescence plate reader.

The test system of a further assay is D4 (FRβ) CHO cells. Conditions: classic antifolates, CHO cells expressing human FRβ; previously published; cited from earlier work.
The target in a further assay is T4, human GARFTase (Homo sapiens, UniProt P22102).
T4 construct: formyltransferase domain of human GARFTase (residues 808–1010); made in house; host or cells: E. coli Rosetta (DE3)pLysS
T4 sequence (P22102 808-1010): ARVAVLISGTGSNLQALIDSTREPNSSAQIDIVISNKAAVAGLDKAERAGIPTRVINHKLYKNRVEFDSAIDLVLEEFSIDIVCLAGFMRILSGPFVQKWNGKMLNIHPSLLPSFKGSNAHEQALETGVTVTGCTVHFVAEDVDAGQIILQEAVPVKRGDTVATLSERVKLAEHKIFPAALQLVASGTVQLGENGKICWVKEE
Nature of the assay: GARFTase inhibition assay, Ki (10-formyl THF to THF, absorbance 298 nm). The format is biochemical. Particulars: purified His-GARFTase, 40 μM 10-formyl THF, 37 °C; mean (SD), at least 3 replicates.

Method for SHMT1: Kinetic measurements were recorded in triplicate using a flat, black-bottom, black-walled 96-well plate (Greiner Bio-One, 655900) and a BioTek Synergy Neo2 Plate Reader. […] To assay SHMT1 or SHMT2 (SHMT1/2) enzymes, a coupled reaction with His-MTHFD2 in 200-fold molar excess was used where the production of NADH was monitored by fluorescence with excitation at 360 nm and emission at 470 nm at 25 °C. The reactions contained 5 nM His-SHMT1/2, 50 μM THF, 20 mM serine, 10 μM His-MTHFD2, 2.5 mM NAD^+, and a range of inhibitor concentrations (final concentrations). The reactions were performed in buffer containing 20 mM sodium phosphate, pH 7.5, 100 mM KCl, 0.2 mM EDTA, and 5 mM β-Me. A BioTek Synergy Neo2 Plate Reader was used to record kinetic measurements in triplicate in a UV-transparent 96-well plate (Costar 3635) for GARFTase and AICARFTase assays and a black-well, black-bottom 96-well plate (Corning 3603). To calculate IC50 values for each inhibitor, initial velocities were graphed as a function of inhibitor concentrations and fit with a three-parameter nonlinear regression (GraphPad Prism 8.0). The equation [Ki = IC50/([S]/KM + 1)] was used to convert IC50’s to Ki values.

Turning to `Nc1nc2[nH]c(CCCc3ccc(C(=O)N[C@@H](CCC(=O)O)C(=O)O)s3)cc2c(=O)[nH]1` [AGF94, (S)-2-({5-[3-(2-amino-4-oxo-4,7-dihydro-3H-pyrrolo[2,3-d]pyrimidin-6-yl)-propyl]-thiophene-2-carbonyl}-amino)-pentanedioic acid], the “effect of adenosine alone on growth inhibition” value with KB tumor cells was “completely reversed”.
On to `CN(Cc1cnc2nc(N)nc(N)c2n1)c1ccc(C(=O)N[C@@H](CCC(=O)O)C(=O)O)cc1` [MTX, methotrexate], for which the results for the Ki at SHMT2 and on SHMT1 were 98 ± 17 µM and more than 200 µM, respectively.
For the molecule `C#CCC(Cc1cnc2nc(N)nc(N)c2n1)c1ccc(C(=O)N[C@@H](CCC(=O)O)C(=O)O)cc1` (stereo partly drawn) [PDX, N-(4-{1-[(2,4-diaminopteridin-6-yl)methyl]but-3-yn-1-yl}benzoyl)-L-glutamic acid], the Ki is more than 200 µM at human ATIC, more than 200 µM on SHMT2, more than 150 µM at human GARFTase and more than 200 µM at SHMT1. The IC50 in the assay on RT16 (FRα) CHO cells is 0.043 µM; in the assay on PC43-10 (RFC) CHO cells, 0.00069 µM; in the assay with KB (RFC/PCFT/FRα) cells it was 0.00047 µM; in the assay on D4 (FRβ) CHO cells, 0.0025 µM.
In the case of `Nc1nc2[nH]cc(CCc3ccc(C(=O)N[C@@H](CCC(=O)O)C(=O)O)cc3)c2c(=O)[nH]1` [PMX, N-{4-[2-(2-amino-3,4-dihydro-4-oxo-7H-pyrrolo[2,3-d]pyrimidin-5-yl)ethyl]benzoyl}-L-glutamic acid], the Ki on SHMT2 and on SHMT1 was more than 200 µM each time.
